Experiments:
VEEV TC83 = test: microbe, parasite or virus in culture; format: cell-based; conditions: Venezuelan equine encephalitis virus, Vero 76, 48 h, read-out: VEEV TC83 EC50 nM
WEEV California = test: microbe, parasite or virus in culture; format: cell-based; conditions: Western equine encephalitis virus, Vero 76, 48 h, read-out: WEEV California EC50 nM

Structure (SMILES)	EC50 (VEEV TC83)	EC50 (WEEV California)
COc1ccc(-n2c([C@H]3CC(F)(F)CN3)nc3c(-c4ccc(C)nc4)cc(C#N)cc3c2=O)cc1F [Example 184, (R)-2-(4,4-difluoropyrrolidin-2-yl)-3-(3-fluoro-4-methoxyphenyl)-8-(6-methylpyridin-3-yl)-4-oxo-3,4-dihydroquinazoline-6-carbonitrile]	51 to 150 nM	51 to 150 nM
COc1ccc(-n2c(C3CCCN3C3CCOCC3)nc3ccc(F)c(F)c3c2=O)cc1 (stereo in doubt) [Example 29, (S)-5,6-difluoro-3-(4-methoxyphenyl)-2-(1-(tetrahydro-2H-pyran-4-yl)pyrrolidin-2-yl) quinazolin-4 (3H)-one]	> 1000 nM	> 1000 nM
COc1ccc(-n2c(-c3ncco3)nc3c(-c4ccc(C)nc4)cc(C#N)cc3c2=O)cc1F [Example 202, 3-(3-fluoro-4-methoxyphenyl)-8-(6-methylpyridin-3-yl)-2-(oxazol-2-yl)-4-oxo-3,4-dihydroquinazoline-6-carbonitrile]	> 1000 nM	> 1000 nM
COc1ccc(-n2c([C@H]3CCCN3)nc3c(-c4ccncc4)cc([N+](=O)[O-])cc3c2=O)cc1F [Example 82, (R)-3-(3-fluoro-4-methoxyphenyl)-6-nitro-8-(pyridin-4-yl)-2-(pyrrolidin-2-yl) quinazolin-4 (3H)-one]	1 to 50 nM	1 to 50 nM
COc1ccc(-c2cc(C#N)cc3c(=O)n(-c4ccc(OC)c(F)c4)c(C4CCCN4)nc23)cn1 (stereo not shown) [Example 125, 3-(3-fluoro-4-methoxyphenyl)-8-(6-methoxypyridin-3-yl)-4-oxo-2-(pyrrolidin-2-yl)-3,4-dihydroquinazoline-6-carbonitrile]	1 to 50 nM	1 to 50 nM
COc1ccc(-n2c(-c3cncn3C)nc3c(-c4ccc(C)nc4)cc(C#N)cc3c2=O)cc1F [Example 201, 3-(3-fluoro-4-methoxyphenyl)-2-(1-methyl-1H-imidazol-5-yl)-8-(6-methylpyridin-3-yl)-4-oxo-3,4-dihydroquinazoline-6-carbonitrile]	> 1000 nM	> 1000 nM
COc1ccc(-n2c(C3CCCN3)nc3c(Cc4ccc(C)nc4)cc(C#N)cc3c2=O)cc1F (stereo not shown) [Example 187, 3-(3-fluoro-4-methoxyphenyl)-8-((6-methylpyridin-3-yl)methyl)-4-oxo-2-(pyrrolidin-2-yl)-3,4-dihydroquinazoline-6-carbonitrile]	51 to 150 nM	151 to 500 nM
COc1ccc(-n2c([C@@H]3CCCN3)nc3c(C)cc([N+](=O)[O-])cc3c2=O)cc1 [Example 56, (S)-3-(4-methoxyphenyl)-8-methyl-6-nitro-2-(pyrrolidin-2-yl) quinazolin-4 (3H)-one]	1 to 50 nM	51 to 150 nM
CNCc1nc2ccc([N+](=O)[O-])cc2c(=O)n1-c1ccc(OC)cc1 [Example 210, 3-(4-methoxyphenyl)-2-((methylamino)methyl)-6-nitroquinazolin-4 (3H)-one]	> 1000 nM	> 1000 nM
O=c1c2cc([N+](=O)[O-])ccc2nc(C2CCCN2)n1-c1ccccc1 (stereo not shown) [Example 1, 6-nitro-3-phenyl-2-(pyrrolidin-2-yl) quinazolin-4 (3H)-one]	51 to 150 nM	51 to 150 nM
COc1ccc(-n2c(C3CCCN3)nc3c(-c4ccnc(C)c4)cc(C#N)cc3c2=O)cc1F (stereo not shown) [Example 138, 3-(3-fluoro-4-methoxyphenyl)-8-(2-methylpyridin-4-yl)-4-oxo-2-(pyrrolidin-2-yl)-3,4-dihydroquinazoline-6-carbonitrile]	1 to 50 nM	1 to 50 nM
COc1ccc(-n2c([C@H]3CCCN3)nc3c(C4CC4)cc([N+](=O)[O-])cc3c2=O)cc1 [Example 95, (R)-8-cyclopropyl-3-(4-methoxyphenyl)-6-nitro-2-(pyrrolidin-2-yl) quinazolin-4 (3H)-one]	1 to 50 nM	51 to 150 nM
Cc1cc([N+](=O)[O-])cc2c(=O)n(-c3ccc(Cl)c(F)c3)c([C@H]3CCCN3)nc12 [Example 60, (R)-3-(4-chloro-3-fluorophenyl)-8-methyl-6-nitro-2-(pyrrolidin-2-yl) quinazolin-4 (3H)-one]	1 to 50 nM	1 to 50 nM
COc1ccc(-n2c([C@@H]3CCCN3C3CCOCC3)nc3ccc(F)c(F)c3c2=O)cc1 [Example 31, (S)-5,6-difluoro-3-(4-methoxyphenyl)-2-(1-(tetrahydro-2H-pyran-4-yl)pyrrolidin-2-yl) quinazolin-4 (3H)-one]	> 1000 nM	> 1000 nM
COc1cccc(-c2cc(C#N)cc3c(=O)n(-c4ccc(OC)c(F)c4)c(C4CCCN4)nc23)c1 (stereo not shown) [Example 148, 3-(3-Fluoro-4-methoxyphenyl)-8-(3-methoxyphenyl)-4-oxo-2-(pyrrolidin-2-yl)-3,4-dihydroquinazoline-6-carbonitrile]	1 to 50 nM	1 to 50 nM
COc1ccc(-n2c([C@H]3CCCN3)nc3ccc([N+](=O)[O-])cc3c2=O)c(F)c1 [Example 25, (R)-3-(2-fluoro-4-methoxyphenyl)-6-nitro-2-(pyrrolidin-2-yl) quinazolin-4 (3H)-one]	51 to 150 nM	151 to 500 nM
COc1ccc(-n2c([C@@H]3CCCN3)nc3ccc([N+](=O)[O-])cc3c2=O)cc1 [Example 12, (S)-3-(4-methoxyphenyl)-6-nitro-2-(pyrrolidin-2-yl) quinazolin-4 (3H)-one]	1 to 50 nM	151 to 500 nM
COc1ccc(-n2c([C@H]3CCCN3)nc3c(C(F)(F)F)cc(C#N)cc3c2=O)cc1 [Example 74, (R)-3-(4-methoxyphenyl)-4-oxo-2-(pyrrolidin-2-yl)-8-(trifluoromethyl)-3,4-dihydroquinazoline-6-carbonitrile]	1 to 50 nM	1 to 50 nM
COc1ccc(-n2c(C3CCCN3)nc3c(-c4ccc(N(C)C)nc4)cc(C#N)cc3c2=O)cc1F (stereo not shown) [Example 130, 8-(6-(dimethylamino)pyridin-3-yl)-3-(3-fluoro-4-methoxyphenyl)-4-oxo-2-(pyrrolidin-2-yl)-3,4-dihydroquinazoline-6-carbonitrile]	1 to 50 nM	1 to 50 nM
COc1ccc(-n2c([C@@H]3CCCN3)nc3c(-c4ccncc4)cc(C#N)cc3c2=O)cc1F [Example 110, (S)-3-(3-fluoro-4-methoxyphenyl)-4-oxo-8-(pyridin-4-yl)-2-(pyrrolidin-2-yl)-3,4-dihydroquinazoline-6-carbonitrile]	1 to 50 nM	1 to 50 nM
COc1ccc(-n2c(C3CCCN3)nc3c(-c4ccc(C(C)=O)nc4)cc(C#N)cc3c2=O)cc1F (stereo not shown) [Example 129, 8-(6-acetylpyridin-3-yl)-3-(3-fluoro-4-methoxyphenyl)-4-oxo-2-(pyrrolidin-2-yl)-3,4-dihydroquinazoline-6-carbonitrile]	1 to 50 nM	1 to 50 nM
COc1ccc(-c2cc(C#N)cc3c(=O)n(-c4ccc(OC)c(F)c4)c(C4CCCN4)nc23)cc1F (stereo not shown) [Example 149, 3,8-Bis(3-fluoro-4-methoxyphenyl)-4-oxo-2-(pyrrolidin-2-yl)-3,4-dihydroquinazoline-6-carbonitrile]	1 to 50 nM	1 to 50 nM
COc1ccc(-n2c(C3CCCN3)nc3c(CCc4ccc(C)nc4)cc(C#N)cc3c2=O)cc1F (stereo not shown) [Example 195, 3-(3-Fluoro-4-methoxyphenyl)-8-(2-(6-methylpyridin-3-yl)ethyl)-4-oxo-2-(pyrrolidin-2-yl)-3,4-dihydroquinazoline-6-carbonitrile]	51 to 150 nM	51 to 150 nM
